This note sets out measurements from patent US20120202794A1 (priority 2011, published 2012).

The subject of one series is HCV Replicon 1b. As to the kind of experiment: HCV inhibition assay, HCV replicon 1b (Clone A or ET-lunet cells; RT-PCR or luciferase reporter). It is filed as cell-based. To be noted: Hepatitis C virus, 96 h, read-out: Replicon 1b potency EC90. The procedure, abridged:
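Clone A (1500/well) or ET-lunet (3000/well) replicon cells treated with serially diluted compounds (0.5% DMSO, no G418) for 4 days at 37 °C. HCV RNA measured by one-step RT-PCR normalized to rRNA (ΔΔCt) or by luciferase luminescence versus DMSO controls; EC50/EC90 by curve fitting.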

Series [1] can be described thus: Cell cytotoxicity assay (MTS), CC90 as reported in Table 1, cell line not stated. The settings on record: human, cell line not given. Type of series: cell-based. The method, boiled down: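 Compounds, serially diluted from 100 μM, were incubated 8 days at 37° C with Huh7, HepG2 or BxPC3 (2×10^3 cells/well) or CEM (5×10^3 cells/well). Viability was read by MTS, 2 h, absorbance 490 nm. CC90 (90% inhibition) was taken against untreated cells.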

Where [2] appears, read: HCV replicon 1b, 4 days incubation.

Read-outs that look alike come from different tables or passages of the source.

As usually defined, the EC90 is the concentration at which the effect reaches the 90% level. For `CC(C)C[C@H]1C(=O)N[C@@H](c2ccsc2Cl)CN1C(=O)[C@@H]1C[C@H]1c1ccc(F)cc1` [Compound 500, (3S,6S)-6-(2-chlorothiophen-3-yl)-4-((1R,2R)-2-(4-fluorophenyl)cyclopropane-carbonyl)-3-isobutylpiperazin-2-one], the EC90 in the series on HCV Replicon 1b (setting [2]) stood at 0.022 µM. In series [1] (MTS assay, 8 days incubation), the CC90 at 8 days is over 10 µM.
The like results for `CC(C)C[C@H]1C(=O)N[C@@H](c2cccc(F)c2)CN1C(=O)c1cc(-c2ccc(F)cc2)on1` [Compound 367, (3S,6S)-6-(3-fluorophenyl)-4-(5-(4-fluorophenyl)isoxazole-3-carbonyl)-3-isobutylpiperazin-2-one] were, in that order, 0.27 µM and over 10 µM.
For `CC(C)C[C@H]1C(=O)N[C@H](c2ccco2)CN1C(=O)c1cc(-c2ccc(F)cc2)on1` [Compound 483, (3S,6S)-4-(5-(4-fluorophenyl)isoxazole-3-carbonyl)-6-(furan-2-yl)-3-isobutyl-piperazin-2-one] the same measures were over 10 µM and over 10 µM.
Consider `Cc1ccc([C@H]2CN(C(=O)c3cc(-c4ccc(F)cc4)on3)[C@@H](CC(C)C)C(=O)N2)s1` [Compound 453, (3S,6R)-4-(5-(4-fluorophenyl)isoxazole-3-carbonyl)-3-isobutyl-6-(5-methylthiophen-2-yl)piperazin-2-one], for which the EC90 in the series on HCV Replicon 1b (setting [2]) came out at 0.68 µM. Besides, the CC90 at 8 days in series [1] (MTS assay, 8 days incubation) is over 10 µM.
For `CC(C)C[C@H]1CN(C(=O)c2cc(-c3ccc(Cl)cc3)cs2)[C@@H](CC(C)C)C(=O)N1` [Compound 272, (3S,6S)-4-(4-(4-chlorophenyl)thiophene-2-carbonyl)-3,6-diisobutylpiperazin-2-one] the same measures were 3.56 µM and over 10 µM.
For `CSc1ccc(-c2cc(C(=O)N3C[C@H](CC(C)C)NC(=O)[C@@H]3CC(C)C)no2)cc1` [Compound 277, (3S,6S)-3,6-diisobutyl-4-(5-(4-(methylthio)phenyl)isoxazole-3-carbonyl)piperazin-2-one] the same measures were 5.84 µM and over 10 µM.
In the case of `CC(C)C[C@H]1CN(C(=O)c2csc(-c3ccccc3)n2)[C@@H](CC(C)C)C(=O)N1` [Compound 98], the EC90 in the series on HCV Replicon 1b (setting [2]) amounted to 7.92 µM. Also, the CC90 at 8 days in series [1] was over 10 µM.
Turning to `CC(C)C[C@H]1C(=O)NC[C@H](c2ccccc2)CN1C(=O)[C@@H]1C[C@H]1c1ccccc1` [Compound 418, (3S,6S)-3-isobutyl-6-phenyl-4-((1R,2R)-2-phenylcyclopropanecarbonyl)-1,4-diazepan-2-one], the EC90 in the series with HCV Replicon 1b (setting [2]) was over 10 µM. Further, in series [1] (MTS assay, 8 days incubation), the CC90 at 8 days is over 10 µM.
`CC(C)C[C@H]1C(=O)N[C@@H](c2cccc(F)c2)CN1C(=O)[C@@H]1C[C@H]1c1ccccc1` [Compound 369, (3S,6S)-6-(3-fluorophenyl)-3-isobutyl-4-((1R,2R)-2-phenylcyclopropanecarbonyl)-piperazin-2-one]: the EC90 with HCV Replicon 1b (setting [2]) was 1.63 µM. Moreover, in series [1] (MTS assay, 8 days incubation), the CC90 at 8 days was over 10 µM.
Regarding `CC(C)C[C@H]1CN(C(=O)[C@@H]2C[C@H]2c2ccc(F)c(F)c2)[C@@H](CC(C)C)C(=O)N1` [Compound 238, (3S,6S)-4-[(1R,2R)-2-(3,4-Difluoro-phenyl)-cyclopropanecarbonyl]-3,6-diisobutyl-piperazin-2-one], in the series on HCV Replicon 1b (setting [2]), the EC90 turned out to be 0.59 µM. Further, in series [1], the CC90 at 8 days is over 10 µM.
With `COC(=O)c1ccc(/C=C/C(=O)N2C[C@H](CC(C)C)NC(=O)[C@@H]2CC(C)C)cc1` [Compound 270, Methyl 4-((E)-3-((2S,5S)-2,5-diisobutyl-3-oxopiperazin-1-yl)-3-oxoprop-1-en-1-yl)-benzoate], the concentration for an effect of 90% (EC90) in the series on HCV Replicon 1b (setting [2]) was over 10 µM. This compound registered a CC90 at 8 days in series [1] (MTS assay, 8 days incubation) of over 10 µM.
With `CC(C)C[C@H]1C(=O)N[C@@H](c2cnco2)CN1C(=O)c1cc(-c2ccc(F)cc2F)on1` [Compound 522, (3S,6R)-4-(5-(2,4-difluorophenyl)isoxazole-3-carbonyl)-3-isobutyl-6-(oxazol-5-yl)piperazin-2-one], in the series on HCV Replicon 1b (setting [2]), the EC90 was 0.27 µM. The same compound gave a CC90 at 8 days in series [1] (MTS assay, 8 days incubation) of over 10 µM.
Turning to `CC(C)C[C@H]1CN(C(=O)c2coc(-c3ccccc3)n2)[C@@H](CC(C)C)C(=O)N1` [Compound 99], the EC90 with HCV Replicon 1b (setting [2]) was over 10 µM. The CC90 at 8 days in series [1] was over 10 µM.
In the case of `CCC[C@H]1CN(C(=O)c2cc(-c3cccs3)on2)[C@@H](CC(C)C)C(=O)N1` [Compound 169], the EC90 with HCV Replicon 1b (setting [2]) was determined as 0.15 µM. Further, the CC90 at 8 days in series [1] is over 10 µM.
The like results for `CC(C)C[C@H]1C(=O)N[C@@H](C(C)C)CN1C(=O)c1cc(-c2ccc(F)cc2)on1` [Compound 175] were, in that order, 0.17 µM and over 10 µM.
For the compound `CC(C)C[C@H]1CN(C(=O)/C=C/c2ccc(N(C)C)cc2)[C@@H](CC(C)C)C(=O)N1` [Compound 261, (3S,6S)-4-((E)-3-(4-(dimethylamino)phenyl)acryloyl)-3,6-diisobutylpiperazin-2-one], the EC90 in the series with HCV Replicon 1b (setting [2]) is over 10 µM. The compound further displayed a CC90 at 8 days in series [1] (MTS assay, 8 days incubation) of over 10 µM.
As for `CC(C)C[C@H]1CN(C(=O)/C=C/c2ccc([N+](=O)[O-])cc2)[C@@H](CC(C)C)C(=O)N1` [Compound 91], in the series on HCV Replicon 1b (setting [2]), the EC90 is over 10 µM. The CC90 at 8 days in series [1] was over 10 µM.
For the compound `CC(C)C[C@H]1CN(Cc2ccc(F)c(C(F)(F)F)c2)[C@@H](CC(C)C)C(=O)N1` [Compound 221, (3S,6S)-4-(4-fluoro-3-(trifluoromethyl)benzyl)-3,6-diisobutylpiperazin-2-one], the EC90 with HCV Replicon 1b (setting [2]) was over 10 µM. In series [1], this compound showed a CC90 at 8 days of over 10 µM.
Regarding `CCC[C@H]1CN(C(=O)c2noc3c2CCc2cc(F)ccc2-3)[C@@H](CC(C)C)C(=O)N1` [Compound 304, (3S,6S)-4-(7-fluoro-4,5-dihydronaphtho[2,1-d]isoxazole-3-carbonyl)-3-isobutyl-6-propylpiperazin-2-one], the EC90 with HCV Replicon 1b (setting [2]) turned out to be 0.64 µM. The same compound yielded a CC90 at 8 days in series [1] (MTS assay, 8 days incubation) of over 10 µM.
As to `CC(C)C[C@H]1CN(Cc2ccc(OC(F)(F)F)cc2)[C@@H](CC(C)C)C(=O)N1` [Compound 228, (3S,6S)-3,6-Diisobutyl-4-(4-trifluoromethoxy-benzyl)-piperazin-2-one], the EC90 in the series on HCV Replicon 1b (setting [2]) is 3.26 µM. This compound also showed a CC90 at 8 days in series [1] of over 10 µM.
Regarding `O=C1N[C@@H](c2ccccc2)CN(C(=O)[C@@H]2C[C@H]2c2ccccc2)[C@H]1CC1CC1` [Compound 338, (3S,6S)-3-(cyclopropylmethyl)-6-phenyl-4-((1R,2R)-2-phenylcyclopropanecarbonyl)-piperazin-2-one], the EC90 in the series with HCV Replicon 1b (setting [2]) is 5.07 µM. Further, the CC90 at 8 days in series [1] (MTS assay, 8 days incubation) is over 10 µM.
Turning to `CC(C)C[C@H]1C(=O)N[C@@H](C(C)C)CN1C(=O)c1cc(-c2ccc(F)cc2)no1` [Compound 146], the concentration for an effect of 90% (EC90) with HCV Replicon 1b (setting [2]) amounted to 0.73 µM. Besides, the CC90 at 8 days in series [1] was over 10 µM.
For `CC(C)C[C@H]1C(=O)N[C@@H](C2CCCC2)CN1C(=O)[C@@H]1C[C@H]1c1ccc(C(C)(C)C)cc1` [Compound 310, (3S,6S)-4-((1R,2R)-2-(4-(tert-butyl)phenyl)cyclopropanecarbonyl)-6-cyclopentyl-3-isobutylpiperazin-2-one], in the series on HCV Replicon 1b (setting [2]), the EC90 amounted to 0.95 µM. The compound also showed a CC90 at 8 days in series [1] (MTS assay, 8 days incubation) of over 10 µM.
In the case of `CC(C)C[C@H]1C(=O)N[C@@H](c2cnco2)CN1C(=O)c1cc(-c2ccc(F)cc2)on1` [Compound 516, (3S,6R)-4-(5-(4-fluorophenyl)isoxazole-3-carbonyl)-3-isobutyl-6-(oxazol-5-yl)piperazin-2-one], in the series on HCV Replicon 1b, the EC90 was 0.11 µM. This compound also registered a CC90 at 8 days in series [1] (MTS assay, 8 days incubation) of over 10 µM.
Take `Cc1ccsc1[C@H]1CN(C(=O)c2noc(-c3ccc(F)cc3)n2)[C@@H](CC(C)C)C(=O)N1` [Compound 441, (3S,6R)-4-(5-(4-fluorophenyl)-1,2,4-oxadiazole-3-carbonyl)-3-isobutyl-6-(3-methylthiophen-2-yl)piperazin-2-one]: the EC90 in the series with HCV Replicon 1b (setting [2]) is over 10 µM. In addition, the CC90 at 8 days in series [1] (MTS assay, 8 days incubation) was over 10 µM.
`CC(C)C[C@H]1CN(C(=O)/C=C/c2ccc(Cl)cc2F)[C@@H](CC(C)C)C(=O)N1` [Compound 86]: in the series on HCV Replicon 1b (setting [2]), the EC90 turned out to be 0.59 µM. This compound showed a CC90 at 8 days in series [1] of over 10 µM.
Turning to `CCCN1C(=O)[C@H](CC(C)C)N(C(=O)c2cc(-c3ccc(F)cc3)on2)C[C@@H]1c1ccccc1` [Compound 323, (3S,6S)-4-(5-(4-fluorophenyl)isoxazole-3-carbonyl)-3-isobutyl-6-phenyl-1-propylpiperazin-2-one], in the series on HCV Replicon 1b (setting [2]), the EC90 was over 10 µM. The same compound registered a CC90 at 8 days in series [1] (MTS assay, 8 days incubation) of over 10 µM.
On to `CC(C)C[C@H]1C(=O)N[C@@H](c2ccccc2)CN1Cc1cc(-c2ccc(Cl)cc2)on1` [Compound 219, (3S,6S)-4-((5-(4-chlorophenyl)isoxazol-3-yl)methyl)-3-isobutyl-6-phenylpiperazin-2-one], for which the EC90 in the series on HCV Replicon 1b (setting [2]) was 4.5 µM. This compound also displayed a CC90 at 8 days in series [1] of over 10 µM.
The like results for `CC(C)C[C@H]1CN(C(=O)c2cn(-c3ccccc3)cn2)[C@@H](CC(C)C)C(=O)N1` [Compound 102] were, in that order, over 10 µM and over 10 µM.
For `COc1ccc(C#CC(=O)N2C[C@H](CC(C)C)NC(=O)[C@@H]2CC(C)C)cc1` [Compound 118] the same measures were 2.96 µM and over 10 µM.
For `CC(C)C[C@H]1C(=O)N[C@@H](CC2CC2)CN1C(=O)[C@@H]1C[C@H]1c1ccc(Cl)cc1` [Compound 243, (3S,6S)-4-[(1R,2R)-2-(4-Chloro-phenyl)-cyclopropanecarbonyl]-6-cyclopropylmethyl-3-isobutyl-piperazin-2-one] the same measures were 0.43 µM and over 10 µM.
As for `CC(C)C[C@H]1CN(C(=O)[C@@H]2C[C@H]2c2ccccc2)[C@@H](CC(C)C)C(=O)N1` [Compound 70], in the series on HCV Replicon 1b (setting [2]), the EC90 stood at 0.8 µM. In series [1], this compound registered a CC90 at 8 days of over 10 µM.
